From patent publication US10472347B2, “Aminopyrazine compounds with A2A antagonist properties” (Merck Sharp & Dohme Corp., priority 2014, dated 2019) come the findings set out here.

SMILES strings stand for the structures.

The target of the assay is T1, human A2a receptor (Homo sapiens, UniProt P29274).
T1 construct: purchased Perkin-Elmer RBHA2AM400UA; host or cells: HEK293 cells (membranes)
T1 sequence (P29274 whole entry): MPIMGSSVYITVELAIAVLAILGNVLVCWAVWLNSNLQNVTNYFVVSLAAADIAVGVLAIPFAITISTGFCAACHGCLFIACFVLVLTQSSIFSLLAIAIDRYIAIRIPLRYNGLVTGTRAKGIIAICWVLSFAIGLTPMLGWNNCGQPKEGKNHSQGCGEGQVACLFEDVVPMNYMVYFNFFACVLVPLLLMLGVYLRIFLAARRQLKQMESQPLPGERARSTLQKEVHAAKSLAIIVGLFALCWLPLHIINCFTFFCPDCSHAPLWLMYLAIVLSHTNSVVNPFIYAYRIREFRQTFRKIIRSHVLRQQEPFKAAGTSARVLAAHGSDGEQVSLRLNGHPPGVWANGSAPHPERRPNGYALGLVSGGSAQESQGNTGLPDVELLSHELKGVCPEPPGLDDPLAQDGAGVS
Briefly: A2a competition binding assay, Scintillation Proximity technology. The note with it: membranes from HEK293 cells expressing human A2a receptor; Ki by Cheng-Prusoff equation. In short, it runs like this: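 SPA competition: 0.5 nM tritiated pyrazolotriazolopyrimidine ligand displaced by compound at 3000 to 0.15 nM, 1 h room temperature, human A2a HEK293 membranes pretreated with adenosine deaminase, PBS/10 mM MgCl2 buffer. CGS15943 1 μM defined non-specific binding; EC50 converted to Ki via Cheng-Prusoff.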
For orientation: SPA uses beads or plates that emit light when radiolabelled molecules are held near them.
In turn, `COCc1cccc(CNC(=O)c2nc(C)c(-c3ncco3)nc2N)n1` [Ex-122, 3-amino-N-{[6-(methoxymethyl)pyridin-2-yl]methyl}-6-methyl-5-(1,3-oxazol-2-yl)pyrazine-2-carboxamide] returned a Ki of 2.91 nM.

The molecule `COCCNC(=O)c1nc(C)c(-c2ncco2)nc1N` [Ex-123, 3-amino-N-(2-methoxyethyl)-6-methyl-5-(1,3-oxazol-2-yl)pyrazine-2-carboxamide] displayed a Ki of 17.4 nM.

`COc1ncccc1CNC(=O)c1nc(C)c(-c2ncco2)nc1N` [Ex-124, 3-amino-N-[(2-methoxypyridin-3-yl)methyl]-6-methyl-5-(1,3-oxazol-2-yl)pyrazine-2-carboxamide] returned a Ki of 1.77 nM.

`Cc1nc(C(=O)N2CCc3cccnc3C2)c(N)nc1-c1ncco1` [Ex-125, 3-(5,8-dihydro-1,7-naphthyridin-7(6H)-ylcarbonyl)-5-methyl-6-(1,3-oxazol-2-yl)pyrazin-2-amine] had a Ki of 18.8 nM.

`Cc1nc(C(=O)NCc2ncc(C(F)(F)F)cn2)c(N)nc1-c1ncco1` [Ex-126, 3-amino-6-methyl-5-(1,3-oxazol-2-yl)-N-{[5-(trifluoromethyl)pyrimidin-2-yl]methyl}pyrazine-2-carboxamide] returned a Ki of 83 nM.

The molecule `Cc1nc(C(=O)NCc2nccn2C2CCC2)c(N)nc1-c1ncco1` [Ex-127, 3-amino-N-[(1-cyclobutyl-1H-imidazol-2-yl)methyl]-6-methyl-5-(1,3-oxazol-2-yl)pyrazine-2-carboxamide] had a Ki of 0.279 nM.

The molecule `Cc1nc(C(=O)NCC2CC2)c(N)nc1-c1ncco1` [Ex-128, 3-amino-N-(cyclopropylmethyl)-6-methyl-5-(1,3,-oxazol-2-yl)pyrazine-2-carboxamide] registered a Ki of 12.5 nM.

As for `Cc1nc(C(=O)NCc2cc(F)ccc2O)c(N)nc1-c1ncco1` [Ex-129, 3-amino-N-(5-fluoro-2-hydroxybenzyl)-6-methyl-5-(1,3-oxazol-2-yl)pyrazine-2-carboxamide], the Ki came out at 0.198 nM.

As to `Cc1nc(C(=O)N[C@H]2c3ccccc3C[C@@H]2O)c(N)nc1-c1ncco1` [Ex-130, 3-amino-N-[(1S,2S)-2-hydroxy-2,3-dihydro-1H-inden-1-yl]-6-methyl-5-(1,3-oxazol-2-yl)pyrazine-2-carboxamide], the Ki was found to be 3.41 nM.

For the molecule `Cc1nc(C(=O)N2CCC2c2ccccc2)c(N)nc1-c1ncco1` (stereo not drawn) [Ex-131, 5-methyl-6-(1,3-oxazol-2-yl)-3-[(2-phenylazetidin-1-yl)carbonyl]pyrazin-2-amine], the affinity corresponds to a Ki of 10.3 nM.

The molecule `Cc1nc(C(=O)NCc2cccs2)c(N)nc1-c1ncco1` [Ex-132, 3-amino-6-methyl-5-(1,3-oxazol-2-yl)-N-(thiophen-2-ylmethyl)pyrazine-2-carboxamide] displayed a Ki of 0.357 nM.

Take `Cc1nc(C(=O)NCc2ccc(C(C)C)cc2)c(N)nc1-c1ncco1` [Ex-133, 3-amino-6-methyl-N-[4-(1-methylethyl)benzyl]-5-(1,3-oxazol-2-yl)pyrazine-2-carboxamide]: the Ki came out at 2.59 nM.

On to `Cc1nc(C(=O)NCc2ccc(C3CC3)cc2)c(N)nc1-c1ncco1` [Ex-134, 3-amino-N-(4-cyclopropylbenzyl)-6-methyl-5-(1,3-oxazol-2-yl)pyrazine-2-carboxamide], for which the Ki is 3.39 nM.

Consider `Cc1cccc(CNC(=O)c2nc(C)c(-c3ncco3)nc2N)c1F` [Ex-135, 3-amino-N-(2-fluoro-3-methylbenzyl)-6-methyl-5-(1,3-oxazol-2-yl)pyrazine-2-carboxamide], for which the affinity corresponds to a Ki of 0.169 nM.

The molecule `Cc1cc(C)c(CNC(=O)c2nc(C)c(-c3ncco3)nc2N)c(C)c1` [Ex-136, 3-amino-6-methyl-5-(1,3-oxazol-2-yl)-N-(2,4,6-trimethylbenzyl)pyrazine-2-carboxamide] registered a Ki of 0.267 nM.

With `Cc1cc(CNC(=O)c2nc(C)c(-c3ncco3)nc2N)ccc1F` [Ex-137, 3-amino-N-(4-fluoro-3-methylbenzyl)-6-methyl-5-(1,3-oxazol-2-yl)pyrazine-2-carboxamide], the Ki was determined as 0.307 nM.

Molecule `Cc1nc(C(=O)N[C@H]2CCc3ccccc32)c(N)nc1-c1ncco1` [Ex-138, 3-amino-N-[(1S)-2,3-dihydro-1H-inden-1-yl]-6-methyl-5-(1,3-oxazol-2-yl)pyrazine-2-carboxamide] returned a Ki of 0.588 nM.

For `CCc1ccc(CNC(=O)c2nc(C)c(-c3ncco3)nc2N)cc1` [Ex-139, 3-amino-N-(4-ethylbenzyl)-6-methyl-5-(1,3-oxazol-2-yl)pyrazine-2-carboxamide], the Ki was 3.03 nM. Against the preceding molecule, the Ki is about 5.2-fold higher.

As to `Cc1nc(C(=O)N[C@@H]2CCc3ccccc32)c(N)nc1-c1ncco1` [Ex-140, 3-amino-N-[(1R)-2,3-dihydro-1H-inden-1-yl]-6-methyl-5-(1,3-oxazol-2-yl)pyrazine-2-carboxamide], the affinity, expressed as Ki, was 0.225 nM. Compared with the last molecule, the Ki is about 13-fold lower.

The molecule `Cc1nc(C(=O)NCc2cccn2C)c(N)nc1-c1ncco1` [Ex-141, 3-amino-6-methyl-N-[(1-methyl-1H-pyrrol-2-yl)methyl]-5-(1,3-oxazol-2-yl)pyrazine-2-carboxamide] showed a Ki of 0.391 nM.

Regarding `Cc1nc(C(=O)NCc2ccc(C)n2C)c(N)nc1-c1ncco1` [Ex-142, 3-amino-N-[(1,5-dimethyl-1H-pyrrol-2-yl)methyl]-6-methyl-5-(1,3-oxazol-2-yl)pyrazine-2-carboxamide], the affinity, expressed as Ki, was 0.704 nM.

`COc1cccc(CNC(=O)c2nc(C)c(-c3ncco3)nc2N)c1` [Ex-143, 3-amino-N-(3-methoxybenzyl)-6-methyl-5-(1,3-oxazol-2-yl)pyrazine-2-carboxamide]: the inhibition constant Ki was 1.72 nM. Against the preceding molecule, the Ki is about 2.4-fold higher.

The molecule `COc1ccccc1CNC(=O)c1nc(C)c(-c2ncco2)nc1N` [Ex-144, 3-amino-N-(2-methoxybenzyl)-6-methyl-5-(1,3-oxazol-2-yl)pyrazine-2-carboxamide] had a Ki of 0.382 nM.

Molecule `Cc1nc(C(=O)N[C@H]2COc3ccccc32)c(N)nc1-c1ncco1` [Ex-147, 3-amino-N-[(3R)-2,3-dihydro-1-benzofuran-3-yl]-6-methyl-5-(1,3-oxazol-2-yl)pyrazine-2-carboxamide] showed an inhibitory constant (Ki) of 0.601 nM. Compared with the last molecule, the Ki is about 1.6-fold higher.

In turn, `COc1ccc(CNC(=O)c2nc(C)c(-c3ncco3)nc2N)cc1` [Ex-148, 3-amino-N-(4-methoxybenzyl)-6-methyl-5-(1,3-oxazol-2-yl)pyrazine-2-carboxamide] showed a Ki of 15.8 nM. This Ki lies about 26-fold higher than the previous one.

`Cc1nc(C(=O)NCc2nc3ccccc3s2)c(N)nc1-c1ncco1` [Ex-149, 3-amino-N-(1,3-benzothiazol-2-ylmethyl)-6-methyl-5-(1,3-oxazol-2-yl)pyrazine-2-carboxamide] yielded a Ki of 0.855 nM. This Ki lies about 18-fold lower than the previous one.

On to `Cc1nc(C(=O)N2Cc3cncnc3C2)c(N)nc1-c1ncco1` [Ex-151, 3-(5,7-dihydro-6H-pyrrolo[3,4-d]pyrimidin-6-ylcarbonyl)-5-methyl-6-(1,3-oxazol-2-yl)pyrazin-2-amine], for which the Ki was 4.58 nM.

On to `Cc1nc(C(=O)NCc2ccccc2O)c(N)nc1-c1ncco1` [Ex-153, 3-amino-N-(2-hydroxybenzyl)-6-methyl-5-(1,3-oxazol-2-yl)pyrazine-2-carboxamide], for which the affinity corresponds to a Ki of 0.141 nM.

In turn, `Cc1ccc(O)c(CNC(=O)c2nc(C)c(-c3ncco3)nc2N)c1` [Ex-154, 3-amino-N-(2-hydroxy-5-methylbenzyl)-6-methyl-5-(1,3-oxazol-2-yl)pyrazine-2-carboxamide] came in with a Ki of 0.125 nM.

Take `Cc1nc(C(=O)NCc2ccc(O)cc2)c(N)nc1-c1ncco1` [Ex-155, 3-amino-N-(4-hydroxybenzyl)-6-methyl-5-(1,3-oxazol-2-yl)pyrazine-2-carboxamide]: the Ki came to 13.9 nM. Compared with the last molecule, the Ki is about 110-fold higher.

Regarding `Cc1nc(C(=O)N[C@@H]2c3ccccc3C[C@@H]2O)c(N)nc1-c1ncco1` [Ex-156, 3-amino-N-[(1R,2S)-2-hydroxy-2,3-dihydro-1H-inden-1-yl]-6-methyl-5-(1,3-oxazol-2-yl)pyrazine-2-carboxamide], the Ki stood at 68.9 nM. Compared with the last molecule, the Ki is about 5-fold higher.

In turn, `Cc1nc(C(=O)N[C@@H]2COc3ccccc32)c(N)nc1-c1ncco1` [Ex-157, 3-amino-N-[(3S)-2,3-dihydro-1-benzofuran-3-yl]-6-methyl-5-(1,3-oxazol-2-yl)pyrazine-2-carboxamide] registered a Ki of 0.601 nM. This Ki lies about 110-fold lower than the previous one.

`Cc1nc(C(=O)NCc2cccc(O)c2)c(N)nc1-c1ncco1` [Ex-158, 3-amino-N-(3-hydroxybenzyl)-6-methyl-5-(1,3-oxazol-2-yl)pyrazine-2-carboxamide]: the Ki amounted to 1.97 nM.

In turn, `Cc1nc(C(=O)N[C@@H]2c3ccccc3C[C@H]2O)c(N)nc1-c1ncco1` [Ex-159, 3-amino-N-[(1R,2R)-2-hydroxy-2,3-dihydro-1H-inden-1-yl]-6-methyl-5-(1,3-oxazol-2-yl)pyrazine-2-carboxamide] displayed a Ki of 1.2 nM.

`Cc1nc(C(=O)NCc2nnc3n2CCC3)c(N)nc1-c1ncco1` [Ex-160, 3-amino-N-(6,7-dihydro-5H-pyrrolo[2,1-c][1,2,4]triazol-3-ylmethyl)-6-methyl-5-(1,3-oxazol-2-yl)pyrazine-2-carboxamide] gave a Ki of 264 nM.

On to `Cc1nc(C(=O)NCc2n[nH]c3c2CCCCC3)c(N)nc1-c1ncco1` [Ex-161, 3-amino-N-(1,4,5,6,7,8-hexahydrocyclohepta[c]pyrazol-3-ylmethyl)-6-methyl-5-(1,3-oxazol-2-yl)pyrazine-2-carboxamide], for which the Ki was 0.293 nM. Compared with the last molecule, the Ki is about 900-fold lower.

Turning to `Cc1nc(C(=O)NCc2nccc(F)c2C)c(N)nc1-c1ncco1` [Ex-162, 3-amino-N-[(4-fluoro-3-methylpyridin-2-yl)methyl]-6-methyl-5-(1,3-oxazol-2-yl)pyrazine-2-carboxamide], the Ki came out at 0.333 nM. This Ki and that of the molecule before are within 1.5-fold of each other.

Consider `CCc1c(F)ccnc1CNC(=O)c1nc(C)c(-c2ncco2)nc1N` [Ex-163, 3-amino-N-[(3-ethyl-4-fluoropyridin-2-yl)methyl]-6-methyl-5-(1,3-oxazol-2-yl)pyrazine-2-carboxamide], for which the Ki stood at 0.197 nM. Compared with the last molecule, the Ki is about 1.7-fold lower.

On to `Cc1nc(C(=O)NCc2nc3ccccc3[nH]2)c(N)nc1-c1ncco1` [Ex-164, 3-amino-N-(1H-benzimidazol-2-ylmethyl)-6-methyl-5-(1,3-oxazol-2-yl)pyrazine-2-carboxamide], for which the affinity corresponds to a Ki of 1.29 nM.

By Ki is commonly meant the equilibrium dissociation constant of an inhibitor or competing ligand from its target. Higher therefore signals weaker binding.
